# System: bacteria
# Assay: Zone-of-inhibition test, overall outcome in words
# Format: cell-based
# Procedure: A standard zone-of-inhibition study was performed on the lotion and wound dressing exemplars described above. The zone-of-inhibition test involved placing a quantity of the prepared lotion or wound dressing in a petri dish, which had been cultured with a particular bacterium. The bacteria used in this test included: B. subtilis, B. vulgatus, C. albicans, E. coli, P. aeruginosa, and S. aureus. In each of these tests, the diameter of the prepared lotion or wound dressing placed in the cultured petri dishes was measured and recorded at the outset of the test. On the first, second, and fifth days thereafter the diameter of the zone of inhibition was measured and recorded. The zone of inhibition in this test was defined as the area surrounding the prepared lotion or wound dressing on the petri dish which was uninhabited by the bacteria of the specific culture. Table 1 reports data for the prepared lotion zone-of-inhibition test and Table 2 reports data for the prepared wound dressing zone-of-inhibition test.
# Similar results are observed for a zone-of-inhibition test when a yeast-derived β-glucan is used in a medical composition as described herein.
substance,measurement,setting,value
β-glucan,antimicrobial effect in the zone-of-inhibition test (in words),overall outcome of the zone-of-inhibition tests,no inhibition of bacteria
same,effect on bacterial growth (in words),β-glucan as a microbial nutrient,promotes bacterial growth
